These are literature values, as cited in US10576045B2 (priority 2012, dated 2020).

For data set [1] the following is noted: 60 mg/day.
For data set [2] the following is noted: reboxetine 4 mg/day coadministered with olanzapine.
The conditions of data set [3]: obese patients with BED; 8 mg/day of reboxetine for 12 days.
For the next data set, the system named is anticholinergic binding. As to conditions: different animal models.

In the case of `CNCCC(Oc1ccc(C(F)(F)F)cc1)c1ccccc1` (racemic) [fluoxetine, (+−)-N-methyl-3-(p-trifluoromethylphenoxy)-3-phenylpropyl-amine], in data set [1] (end of the study, week 52), the “difference between treatment and placebo groups” value is “no difference”. Besides, the “weight loss compared to placebo” value in data set [1] (following 28 weeks of treatment) is “statistically significant weight loss”.
Take `CCOc1ccccc1O[C@H](c1ccccc1)[C@H]1CNCCO1` (relative stereo) [reboxetine, (R*,R*)-2-[(2-ethoxyphenoxy)-phenyl-methyl]morpholine]: the “monoamine oxidase (MAO) inhibitory activity” value in the data set on monoamine oxidase (MAO) was “substantially devoid”. For the same compound, in the data set with dopamine reuptake, the “dopamine reuptake inhibitory activity” value is on record as “no”. The “weight-gain associated with olanzapine administration” value in data set [2] is “reduced the weight-gain”. Also, the “serotonin reuptake inhibitory activity” value in the data set on serotonin reuptake is given as “only marginal”. Besides, the binge eating behavior result in data set [3] is reported as “reduced binge eating behavior”. Moreover, in the data set with anticholinergic binding, the anticholinergic binding activity result was “no anticholinergic binding activity”.
